18 molecules from patent US9221826B2, “Pyrrolopyridazine JAK3 inhibitors and their use for the treatment of inflammatory and autoimmune diseases” (Bristol-Myers Squibb Company, priority 2011, dated 2015) can be followed below.

Format in all cases: biochemical
For experiment [1], the target named is GST-JAK1 enzyme (Homo sapiens, UniProt P23458). As to the kind of experiment: JAK1 Kinase Assay Protocol. Particulars: Caliper LabChip assay, ATP 100 μM, fluoresceinated peptide; read-out: LLE_JAK1 (IC50). As for the experimental part: The assay reactions were performed in U-bottom 384-well plates. The final assay volume was 30 μl prepared from 15 μl additions of enzyme and substrates (fluoresceinated peptide and ATP) and test compounds in assay buffer (20 mM HEPES pH 7.4, 10 mM MgCl2, 25 mM beta-glycerol phosphate, 0.015% Brij35 and 4 mM DTT). The reaction was initiated by the combination of GST-JAK1 enzyme with substrates and test compounds. The reactions were incubated at room temperature for 3 hours and terminated by adding 60 μl of 35 mM EDTA to each sample. Each reaction mixture was analyzed on the Caliper LabChip 3000 (Caliper, Hopkinton, Mass.) by electrophoretic separation of the fluorescent substrate and phosphorylated product. […] The final concentration of reagents in the assays was: ATP, 100 μM; fluoresceinated peptide, 1.5 μM; GST-JAK1, 12.5 nM; and DMSO, 1.6%. […] Compounds were dissolved at 10 mM in dimethylsulfoxide (DMSO) and evaluated at eleven concentrations. IC50 values were derived by non-linear regression analysis.
Sequence of GST-JAK1 enzyme (P23458 whole entry): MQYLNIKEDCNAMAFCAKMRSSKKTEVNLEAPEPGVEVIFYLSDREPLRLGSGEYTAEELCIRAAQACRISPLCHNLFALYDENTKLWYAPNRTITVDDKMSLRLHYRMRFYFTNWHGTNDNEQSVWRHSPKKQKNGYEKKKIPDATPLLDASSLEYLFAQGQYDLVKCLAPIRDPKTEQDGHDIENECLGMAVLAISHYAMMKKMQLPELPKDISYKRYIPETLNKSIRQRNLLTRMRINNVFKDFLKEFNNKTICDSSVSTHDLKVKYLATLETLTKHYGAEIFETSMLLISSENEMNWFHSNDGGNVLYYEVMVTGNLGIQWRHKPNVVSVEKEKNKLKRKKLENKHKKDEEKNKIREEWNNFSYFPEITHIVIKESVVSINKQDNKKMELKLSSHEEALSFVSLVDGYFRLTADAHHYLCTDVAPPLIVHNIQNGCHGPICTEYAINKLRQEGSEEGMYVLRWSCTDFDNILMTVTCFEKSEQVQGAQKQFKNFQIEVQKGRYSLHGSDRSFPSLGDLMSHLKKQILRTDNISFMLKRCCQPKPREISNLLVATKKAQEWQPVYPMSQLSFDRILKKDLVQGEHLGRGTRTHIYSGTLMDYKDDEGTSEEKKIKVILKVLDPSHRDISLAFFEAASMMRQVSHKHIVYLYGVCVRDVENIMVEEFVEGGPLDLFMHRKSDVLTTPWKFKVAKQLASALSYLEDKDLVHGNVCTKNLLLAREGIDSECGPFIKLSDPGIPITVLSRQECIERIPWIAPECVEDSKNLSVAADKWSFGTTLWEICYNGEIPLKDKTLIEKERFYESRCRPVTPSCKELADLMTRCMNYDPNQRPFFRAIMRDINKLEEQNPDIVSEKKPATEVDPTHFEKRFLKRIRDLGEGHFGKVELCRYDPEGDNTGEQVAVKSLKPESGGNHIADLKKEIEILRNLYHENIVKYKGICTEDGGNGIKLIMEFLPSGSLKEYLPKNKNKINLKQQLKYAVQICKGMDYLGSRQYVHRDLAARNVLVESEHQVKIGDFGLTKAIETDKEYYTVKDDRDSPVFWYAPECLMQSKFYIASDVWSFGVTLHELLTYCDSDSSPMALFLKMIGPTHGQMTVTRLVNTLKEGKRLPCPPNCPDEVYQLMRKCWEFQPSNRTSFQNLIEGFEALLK

The target of experiment [2] is T1, GST-JAK3 enzyme (Homo sapiens, UniProt P52333).
T1 sequence (P52333 1-1124): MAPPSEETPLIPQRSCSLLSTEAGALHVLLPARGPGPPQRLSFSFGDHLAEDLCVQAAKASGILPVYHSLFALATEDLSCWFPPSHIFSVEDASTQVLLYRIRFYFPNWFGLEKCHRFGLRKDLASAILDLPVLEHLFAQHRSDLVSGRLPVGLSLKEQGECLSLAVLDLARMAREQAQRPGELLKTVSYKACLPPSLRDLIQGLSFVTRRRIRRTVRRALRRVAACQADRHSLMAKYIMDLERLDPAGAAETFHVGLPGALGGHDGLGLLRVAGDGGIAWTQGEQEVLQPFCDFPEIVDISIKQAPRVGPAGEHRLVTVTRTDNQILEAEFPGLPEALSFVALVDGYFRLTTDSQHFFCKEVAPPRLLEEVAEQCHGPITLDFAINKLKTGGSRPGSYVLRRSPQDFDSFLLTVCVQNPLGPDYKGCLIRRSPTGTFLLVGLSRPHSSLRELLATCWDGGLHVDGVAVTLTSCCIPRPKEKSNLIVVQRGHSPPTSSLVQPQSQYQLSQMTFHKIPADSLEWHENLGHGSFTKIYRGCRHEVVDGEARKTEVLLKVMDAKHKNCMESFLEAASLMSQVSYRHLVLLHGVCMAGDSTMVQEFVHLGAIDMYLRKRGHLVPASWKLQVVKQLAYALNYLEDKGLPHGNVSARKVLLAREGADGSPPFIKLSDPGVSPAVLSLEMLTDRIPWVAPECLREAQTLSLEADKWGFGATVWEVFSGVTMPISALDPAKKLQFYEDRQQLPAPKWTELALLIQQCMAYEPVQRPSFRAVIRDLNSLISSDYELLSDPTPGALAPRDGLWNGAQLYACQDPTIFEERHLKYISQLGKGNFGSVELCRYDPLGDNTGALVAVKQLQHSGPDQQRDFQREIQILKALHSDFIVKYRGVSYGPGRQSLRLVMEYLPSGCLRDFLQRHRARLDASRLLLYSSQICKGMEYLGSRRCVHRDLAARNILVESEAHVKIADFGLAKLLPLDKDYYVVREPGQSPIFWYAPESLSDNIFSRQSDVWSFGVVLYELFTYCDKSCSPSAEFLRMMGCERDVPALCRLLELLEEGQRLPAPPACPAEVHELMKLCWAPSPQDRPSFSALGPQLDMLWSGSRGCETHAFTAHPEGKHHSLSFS
As to the kind of experiment: JAK3 Kinase Assay Protocol (Caliper). Conditions: Caliper LabChip assay, ATP 8 μM, fluoresceinated peptide; read-out: LLE_JAK3_CAL (IC50). As for the experimental part: The assay reactions were performed in U-bottom 384-well plates. […] The reaction was initiated by the combination of GST-JAK3 enzyme with substrates and test compounds. The reactions were incubated at room temperature for 3 hours and terminated by adding 60 μl of 35 mM EDTA to each sample. Each reaction mixture was analyzed on the Caliper LabChip 3000 (Caliper, Hopkinton, Mass.) by electrophoretic separation of the fluorescent substrate and phosphorylated product. […] Compounds were dissolved at 10 mM in dimethylsulfoxide (DMSO) and evaluated at eleven concentrations. IC50 values were derived by non-linear regression analysis.

Experiment [3] deals with T2, JAK3 enzyme (Homo sapiens, UniProt P52333).
T2 sequence (P52333 1-1124): T1 sequence (P52333 1-1124)
Briefly: JAK3 Kinase Assay Protocol (Filter). Conditions: 33P γ-ATP, 8 μM ATP, CSKtide substrate, read-out: LLE_JAK3_FB (IC50). As for the experimental part: Kinase reactions consisted of 5 ng of JAK3 enzyme, 30 uM CSKtide substrate, 0.2 μCi ^33P γ-ATP, 8 μM ATP in 30 μl kinase buffer (50 mM Hepes, pH 8.0, 10 mM MgCl2, 1 mM EGTA, 2 mM DTT). Reactions were incubated for 30 minutes at room temperature and stopped by the addition of cold trichloroacetic acid (TCA) to a final concentration of 15%. TCA precipitates were collected onto 384 well phosphocellulose filters (Millipore) using a Platemate to transfer the reaction mixture, washed on an EMBLA plate washer and the filters were quantitated using a TopCount 384-well liquid scintillation counter. […] Compounds were dissolved at 10 mM in dimethylsulfoxide (DMSO) and evaluated at six concentrations, each in triplicate. The final concentration of DMSO in the assay equaled 2%. IC50 values were derived by non-linear regression analysis.

For `CSc1nnc(-c2cc3c(N[C@H](C)C4CC4)c(C(N)=O)cnn3c2)o1` [Example 127, (R)-4-(1-cyclopropylethylamino)-6-(5-(methylthio)-1,3,4-oxadiazol-2-yl)pyrrolo[1,2-b]pyridazine-3-carboxamide], the IC50 in experiment [1] stood at 160 nM; in experiment [2], 23.4 nM; in experiment [3], 26 nM.
Take `C[C@@H](Nc1c(C(N)=O)cnn2cc(N3CCOCC3=O)cc12)C(C)(C)F` [Example 129]: the values for the IC50 in experiment [1], in experiment [2] and in experiment [3] were 61.1 nM, 8.4 nM and 11 nM, respectively.
On the same counts, the results for `C[C@@H](Nc1c(C(N)=O)cnn2cc(N3CCCS3(=O)=O)cc12)C(C)(C)F` [Example 131] are 83.1 nM, 4.8 nM and 11.3 nM.
For `CC(C)Nc1c(C(N)=O)cnn2cc(-c3ccc(C#N)cc3)cc12` [Example 146], in that order: 26.5 nM, 11.1 nM and 15.1 nM.
On the same counts, the results for `CC(C)Nc1c(C(N)=O)cnn2cc(-c3ccnc4ccccc34)cc12` [Example 153] are 402 nM, 223 nM and 178 nM.
Take `COc1cc(-c2cc3c(NC(C)C)c(C(N)=O)cnn3c2)c(F)cn1` [Example 154]: the figures for the IC50 in experiment [1], in experiment [2] and in experiment [3] were 149 nM, 56.3 nM and 35.1 nM, respectively.
For `COc1ccc(-c2cc3c(N[C@H](C)c4ccccc4F)c(C(N)=O)cnn3c2)cn1` [Example 180, 4-(((1R)-1-(2-fluorophenyl)ethyl)amino)-6-(6-methoxy-3-pyridinyl)pyrrolo[1,2-b]pyridazine-3-carboxamide], in that order: 1200 nM, 60.9 nM and 13.5 nM.
Take `CCCNc1c(C(N)=O)cnn2cc(-c3ccccc3)cc12` [Example 183, 6-phenyl-4-(propylamino)pyrrolo[1,2-b]pyridazine-3-carboxamide]: the IC50 in experiment [1] was determined as 37.3 nM; in experiment [2] it was 27.3 nM; in experiment [3], 11 nM.
For `NC(=O)c1cnn2cc(-c3ccccc3)cc2c1NCC1(CO)CC1` [Example 189, 4-((1-(hydroxymethyl)cyclopropyl)methylamino)-6-phenylpyrrolo[1,2-b]pyridazine-3-carboxamide], in that order: 21.5 nM, 8.5 nM and 19.1 nM.
For `CNc1c(C(N)=O)cnn2cc(-c3cccc(CC#N)c3)cc12` [Example 191, 6-(3-(cyanomethyl)phenyl)-4-(methylamino)pyrrolo[1,2-b]pyridazine-3-carboxamide], in that order: 72.3 nM, 40.6 nM and 88 nM.
Regarding `C[C@@H](Nc1c(C(N)=O)cnn2cc(-c3cnc(N)nc3)cc12)C1CC1` [Example 192, (R)-6-(2-aminopyrimidin-5-yl)-4-(1-cyclopropylethylamino)pyrrolo[1,2-b]pyridazine-3-carboxamide], the IC50 turned out to be 13 nM in experiment [1], 2.1 nM in experiment [2] and 1.7 nM in experiment [3].
Consider `C[C@@H](Nc1c(C(N)=O)cnn2cc(-c3ccccc3)cc12)C(C)(C)C(N)=O` [Example 194, (R)-4-(4-amino-3,3-dimethyl-4-oxobutan-2-ylamino)-6-phenylpyrrolo[1,2-b]-pyridazine-3-carboxamide], for which the IC50 in experiment [1] is 2.8 nM; in experiment [2], 1 nM; in experiment [3] it was 1.3 nM.
For `CNc1nnc(-c2cc3c(N[C@H](C)C4CC4)c(C(N)=O)cnn3c2)o1` [Example 195, (R)-4-(1-cyclopropylethylamino)-6-(5-(methylamino)-1,3,4-oxadiazol-2-yl)pyrrolo[1,2-b]pyridazine-3-carboxamide], in that order: 73.7 nM, 8.4 nM and 5.3 nM.
For `C[C@@H](O)[C@@H](CO)Nc1c(C(N)=O)cnn2cc(-c3ccccc3)cc12` [Example 196, 4-((2R,3R)-1,3-dihydroxybutan-2-ylamino)-6-phenylpyrrolo[1,2-b]pyridazine-3-carboxamide], in that order: 5.8 nM, 3 nM and 1.3 nM.
On the same counts, the results for `C[C@@H](Nc1c(C(N)=O)cnn2cc(-c3ccc(N)nc3)cc12)C1CC1` [Example 200] are 4.8 nM, 2.2 nM and 1.1 nM.
As to `CNC(=O)c1ccc(-c2cc3c(N[C@H](C)C4CC4)c(C(N)=O)cnn3c2)cn1` [Example 202], the IC50 turned out to be 3.8 nM in experiment [1], 1.2 nM in experiment [2] and 1.8 nM in experiment [3].
On the same counts, the results for `C[C@@H](Nc1c(C(N)=O)cnn2cc(-c3cnc(NCCN(C)C)nc3)cc12)C1CC1` [Example 205] are 110 nM, 5.4 nM and 7.9 nM.
Take `C[C@@H](Nc1c(C(N)=O)cnn2cc(-c3nnc(N4CCN(C)CC4)o3)cc12)C1(C)CC1` [Example 241, (R)-4-((1-(1-methylcyclopropyl)ethyl)amino)-6-(5-(4-methylpiperazin-1-yl)-1,3,4-oxadiazol-2-yl)pyrrolo[1,2-b]pyridazine-3-carboxamide]: the IC50 in experiment [1] turned out to be 100 nM; in experiment [2], 1.8 nM; in experiment [3] it was 2.3 nM.
